PMC6010047, “Design, synthesis and biological evaluation of novel hydroxy-phenyl-1H-benzimidazoles as radical scavengers and UV-protective agents” (Journal of Enzyme Inhibition and Medicinal Chemistry, 2017)
Read-outs that look alike come from different tables or passages of the source.

Key:
[1] = 1,1-Diphenyl-2-picryl-hydrazyl radical (DPPH) assay; type: biochemical; conditions: Trolox equivalents; mean ± SE of three experiments
Procedure: To 1.5 mL DPPH methanolic solution (0.5 mM) was added 0.750 mL of sample solution proper diluted. Samples absorbance measurements were evaluated with a UV-VIS spectrophotometer (Thermo Spectronic Helios γ, Cambridge, UK) at fixed wavelength of 517 nm. Blank sample was prepared adding methanol to DPPH solution and Trolox was used as standard reference to achieve a calibration curve. The radical-scavenging activity is expressed as inhibition ratio of initial concentration of DPPH radical and is calculated according to the formula: Inhibition percentage (Ip) = [(AB-As)/AB]·100; where AB and As are, respectively, the absorbance values of blank reaction and of the tested sample[25].

[2] = Ferric reducing antioxidant of potency (FRAP) assay; type: biochemical; conditions: Trolox equivalents; mean ± SE of three experiments
Procedure: The ferric reducing ability of each standard solution was measured according to a modified protocol described by Guihua et al.[26]. The reagent for analysis was freshly prepared by mixing the following solutions in the reported ratio 10/1/1 (v:v:v) (i) 0.1 M acetate buffer pH 3.6, (ii) TPTZ (2,4,6-Tri(2-pyridyl)-s-triazine) 10 mmol/L in 40 mmol/HCl, (iii) ferric chloride 20 mmol/L. To a 1.9 mL of reagent were added 0.1 mL of sample proper diluted or solvent when blank was performed. Readings at fixed wavelength of the absorption maximum (593 nm) were done after 30 min, using a UV-VIS spectrophotometer; it was evaluated the absorbance increase of sample solution against the absorbance of blank reaction as parameter to calculate the antioxidant activity. The antioxidant activity is given as Trolox activity since this standard was used to perform the calibration curves.

[3] = UV spectra: λmax and molar extinction coefficient; type: physicochemical
Procedure: Sun protection factor (SPF) is related to the UV absorption of the substances, so before including the molecules in cosmetic formulations we evaluated the wavelength of maximum absorption (λmax) and the molar extinction coefficient (ɛ) of each molecule in aqueous solution at pH 7. The UV spectra were recorded between 270 and 420 nm (20 nm higher and lower then UVA and UVB range) to verify the spectrum profile of the molecules within UVA and UVB region. UV spectrum of PBSA is an UVB filter and presents a λmax of 302 nm; after this peak, the absorbance fades going to higher wavelength until almost zero around 325 nm, and then, it provides no absorption in the UVA region. Molecules spectra overlapped for category according to the substituent in position 5 of the benzimidazole ring are shown in Figures 1, 2 and 3; PBSA spectrum is presented in all figures for comparison.
From the spectra appears that the lambda maxima (Table 2) of the new molecules shifted toward higher wavelength and in general the range of absorption curve was wider than PBSA. Within a group of molecules, the batochromic shift was more marked for the molecules that have a hydroxyl moiety in position 2 of the phenyl ring (4, 5, 6, 9, 10, 11, 13 and […]); the effect of ortho substituted is known to produce this shift toward higher wavelength. Increasing the number of auxochrome groups on phenyl ring an increment in the absorption range occurred, compounds with three hydroxyl on the phenyl ring (6, 11, 15) had the broadest spectrum and their lambda maxima shifted at the highest wavelength compared to the other compounds. The absorption spectrum of molecules with the same number and position of hydroxyl seemed only slightly influenced by the substituent in position 5 of the benzimidazole ring. After having established the lambda maxima for every compound, solutions at different concentrations were prepared to calculate the molar extinction coefficient by means of linear regression and applying Lambert–Beer equation (Table 2).

[4] = Cytotoxicity, MTT test, 72 h; conditions: human, NCTC-2544 keratinocytes (immortalized, nontumorigenic)
Procedure: (§1) An immortalized, nontumorigenic cell line of human keratinocytes (NCTC-2544) was grown in a DMEM medium (Sigma-Aldrich Milan, Italy), supplemented with 115 units/mL of penicillin G, 115 μg/mL streptomycin, and 10% fetal calf serum (Invitrogen, Milan, Italy). Individual wells of a 96-well tissue culture microtiter plates (Falcon, Becton–Dickinson) were inoculated with 100 μL of complete medium containing 5 × 10^3 NCTC-2544. The plates were incubated at 37 °C in a humidified (5% CO2) incubator for 18 h prior to the experiments.
After medium removal, 100 μL of the drug solution, dissolved in DMSO and diluted in DMEM medium, was added to each well, incubated at 37 °C for 72 h. Final DMSO concentration never exceeded 0.5%. Cell viability was assayed by the MTT (3–(4,5-dimethylthiazol-2-yl)-2,5 diphenyl tetrazolium bromide) test as previously described by Mosmann[27].
The tests were conducted using a specific cell line of human keratinocytes (NCTC-2544). To assess cell viability, in the presence of the study compounds, before and after the irradiation, the MTT assay was performed[27]. The cytotoxicity was checked after 72 h from the incubation of the keratinocytes with compounds; moreover, the same experiments were performed in the presence of the parent PBSA.

[5] = tested on: NCTC-2544 cells; assay: Phototoxicity / cellular photoprotection, UVA or UVB irradiation, MTT test; conditions: Homo sapiens, NCTC-2544, light or radiation study, 48 h
Procedure: as §1
Two HPW 125 Philips lamps, mainly emitting at 365 nm, were used for UVA irradiation experiments. The spectral irradiance of the source was 4.0 mWcm^−^2 as measured at the sample level by a Cole-Parmer Instrument Company radiometer (Niles, IL) equipped with a 365-CX sensor. One or two PL-S 9 W/12 Philips lamps (280–370 nm; peak at 315 nm) were used for UVB irradiation experiments. To restrict the incident radiation to the range 305–370 nm, a glass filter (Schott SWG-305) was used. Total energy was detected by the same equipped with a sensor (model CX-312).
After medium removal, 100 μL of the drug solution, dissolved in DMSO and diluted with Hank’s Balanced Salt Solution (HBSS pH =7.2), was added to each well, incubated at 37 °C for 30 min, and then irradiated (20 J/cm^2 for UVA and 0.5 and 1 J/cm^2 for UVB). After irradiation, the solution was replaced with the medium and the plates were further incubated for 48 h. Cell viability was assayed by the MTT [(3–(4,5-dimethylthiazol-2-yl)-2,5 diphenyl tetrazolium bromide)] test as previously described by Mosmann[27].
Molecules were verified for their photocytotoxicity in the same cell line; the cells were treated with 50 μM solutions of compound and after 30 min were irradiated with 20 J/cm^2 UVA or with UVB at two energy amounts: 0.5 J/cm^2 and 1 J/cm^2 UVB. […] After irradiation, the solution was replaced with growth medium and the cells were further incubated for 48 h, and then, cell viability was assessed by MTT assay. […] The phototoxicity of tested molecules was compared with the ratio of cell survival of irradiated keratinocytes without substance (IC = irradiated control).

λ max ([3]; aqueous solution at pH 7): 306 nm
ɛ (molar extinction coefficient) ([3]; aqueous solution at pH 7, at λ max, linear regression Lambert–Beer): 24 000
SMILES: Oc1ccc(-c2nc3ccccc3[nH]2)cc1 [Compound 7, 2-(4-Hydroxy-phenyl)-1H-benzimidazole]
DPPH [1]: 1.67 ± 0.08 μmolTrolox/mmol
FRAP [2]: 21.94 ± 0.12 μmolTrolox/mmol
IC50 at 72 h [4]: 26.1 ± 2.4 µM
viability at 20 µM ([5]; read-out: % Cell survival UVA 20 J/cm^2): 72.8 ± 2.9%
viability at 20 µM ([5]; read-out: % Cell survival UVB 0.5 J/cm^2): 74.2 ± 1.3%
viability at 20 µM ([5]; read-out: % Cell survival UVB 1 J/cm^2): 44 ± 4.1%
